{"source": "patent EP2656853A1", "about": "“METHOD FOR TREATING ACUTE CEREBRAL AND SPINAL BLOOD FLOW DISORDERS OF AN ISCHAEMIC OR HA[…]” (Zakrytoe Aktsionernoe Obschestvo \"Pharm-Sintez\", priority 2010, dated 2012)", "key": {"murine bone marrow cells [1]": {"test_system": "murine bone marrow cells", "settings": "positive control, 20 mg/kg intraperitoneally, male mice", "from_the_text": "The Study purpose was to reveal and quantitatively assess the cytogenetic activity (mutagenicity) of the pharmacologic drugs in the mammalian bone marrow polychromatophils. The method's base is the micronuclei cells microscopic registration.\nThe experimental used the male and female F1(CBAx C57BI6/J) hybrid mice, two-month age, 18 to 20 grams body weight. Every group included 6 animals. The animals were kept under the 12-hour light regime, with freely available water and food. The single and five fold administration protein-polypeptide complex mutagenicity assessment animal experiments were in compliance with the official protocols. Three experimental series with relevant controls were performed: therapeutic dosage: males, single administration; subtoxic dosage: males, single administration; and therapeutic dosage: males and females, five fold administration. […]\n(§1) The bone marrow cells preparations for the micronuclei account were made in conventional manner, in accordance with the \"Micronuclear Test Environmental Factors Mutagenicity Assessment in Mammalian Organs Cells\" Guidelines. […] 2000 polychromatophils per animal were then analyzed with coded preparations. At the 500 erythrocytes count the polychromatophil to normochromatic erythrocytes ratio was determined."}, "murine bone marrow cells [2]": {"test_system": "murine bone marrow cells", "settings": "positive control, 20 mg/kg intraperitoneally, male mice", "remark": "listed apart in the source", "from_the_text": "The Study purpose is to reveal and quantitatively assess the cytogenetic activity (mutagenicity) of the pharmacologic drugs in the mammalian bone marrow polychromatophils. The method's base is the micronuclei cells microscopic registration.\nThe experimental used the male and female F1(CBAx C57BI6/J) hybrid mice, two-month age, 18 to 20 grams body weight. Every group included 6 animals. The animals were kept under the 12-hour light regime, with freely available water and feed. The single and five fold administration protein-polypeptide complex mutagenicity assessment animal experiments were in compliance with the official protocols. Three experimental series with relevant controls were performed: therapeutic dosage: males, single administration; subtoxic dosage: males, single administration; and therapeutic dosage: males and females, five fold administration. […]\nas §1"}}, "data": [{"compound": "O=P1(N(CCCl)CCCl)NCCCO1", "note": "(stereo not shown) [cyclophosphamide]", "values": [{"measurement": "higher micronuclei cells vs. control", "setting": "murine bone marrow cells [1]", "result": 19.6, "unit": "fold"}, {"measurement": "micronuclei cells", "setting": "murine bone marrow cells [1]; control 3.16‰", "result": "62.1 ‰"}, {"measurement": "higher micronuclei cells count vs. control", "setting": "murine bone marrow cells [2]", "result": 19.6, "unit": "fold"}, {"measurement": "micronuclei cells count", "setting": "murine bone marrow cells [2]; control 3.16‰", "result": "62.1 ‰"}]}]}
